“And” between values parts separate entries of the source, which are not always exact repeats. Equal entries are not always repeated. Marks after values point to notes of the source that are not given here.
Experiments:
[1] = observation whether peptide/solvent admixture formed a solution or a suspension; format: physicochemical
Description: Each polypeptide was admixed with the indicated solvent at a concentration of 2.5 mg of polypeptide per ml of solvent. […] Those admixtures forming a suspension were further admixed by water bath sonication for 10 seconds to form a very fine suspension, sufficient for pipetting using glass pipettes.

[2] = pulsating bubble technique ("bubble assay" of Enhorning, Enhorning Surfactometer); format: physicochemical; settings: peptide 10% by weight of PL, 37° C., negative pressure, mean of 3; for Pressure Gradient 15″: 15 seconds; for Pressure Gradient 1′: 1 minute; for Pressure Gradient 5′: 5 minutes
Description: Measurements of surface pressure across an air-liquid interface (expressed in negative cm of H2O pressure) at minimal (γmin) bubble radius were determined at various times using the pulsating bubble technique described by Enhorning, J. Appl. Physiol. 43: 198-203 (1977).
Briefly, the Enhorning Surfactometer (Surfactometer International, Toronto, Ontario) measures the pressure gradient (ΔP) across a liquid-air interface of a bubble that pulsates at a rate of 20 cycles/min between a maximal (0.55 mm) and minimal (0.4 mm) radius. The bubble, formed in a 37° C., water-enclosed, 20-μl sample chamber, is monitored through a microscopic optic while the pressure changes are recorded on a strip chart recorder calibrated for 0 and −2 cm H2O.
Each of the surfactants identified in Table 5 was assayed for surfactant activity as evidenced by their ability to reduce surface tension in vitro using the “bubble assay” of Enhorning as described above.
After admixture with solvent, each peptide was admixed with phospholipids (PL), DPPC:PG, 3:1, in chloroform in a glass tube so that the amount of polypeptide added equaled one-tenth (10% by. weight) of the amount of PL added, to form a surfactant according to either method A, B or C.
Each of the surfactants was then assayed for surfactant activity as evidenced by their ability to reduce surface tension in vitro in the bubble assay performed as described above. The pressure gradient (ΔP) is a measure of surfactant activity in the polypeptide-PL third admixture which was determined using an Enhorning Surfactometer as described above. Measurements were obtained at time points of 15 seconds (15″), 1 minute (1′) and 5 minutes (5′) and are expressed as a mean of three independent measurements of the indicated polypeptide-PL admixture.

fetal rabbit lung = experiment: dynamic compliance, fetal rabbit model; format: in vivo; settings: single animal per line, 10% peptide to PL, Protocol 4
Description: A subject polypeptide was first admixed with solvent as described in Example 3. […]
Surfactant was instilled in rabbit fetal lung by injection into the trachea from a single syringe of the following three components such that the components exit the syringe in the following order: (1) 0.05 ml air; (2) 0.1 ml of a synthetic surfactant prepared in Example 4A or either 2 mg of PL or 2 mg of native surfactant; and (3) 0.1 ml air.
From one syringe, a 0.1 ml aliquot of synthetic surfactant prepared as described in Example 4A (or 2 mg of NS or of PL), was instilled into the rabbit trachea as described above, followed by injection of 0.05 ml lactated Ringer's Solution and 0.2 ml air from a second syringe.
From one syringe, 0.1 ml of a synthetic surfactant prepared as described in Example 4A (or 2 mg of NS or of PL), 0.15 ml air, 0.1 ml saline, and 0.3 ml air were injected into the trachea as described above. Two subsequent aliquots of 0.3 ml air were given.
The surfactant activity of exemplary polypeptides of this invention was studied using the methods described in detail previously by Revak, et al, Am. Rev. Respir. Dis. 134: […] (1986), with the exceptions noted hereinbelow.
Twenty-seven day gestation fetal rabbits were delivered by hysterotomy and immediately injected with 0.05 ml Norcuron (Organon, Inc., N.J.) to prevent spontaneous breathing. The fetal rabbits were then weighed and a small cannula was inserted into the trachea by tracheotomy surfactant prepared as described above was then instilled into the fetal rabbit lung by one of the above instillation protocols.
Following instillation the rabbit was placed in a specially designed plethysmograph (containing a Celesco transducer) connected to a ventilator (Baby Bird, Baby Bird Corp., Palm Springs, Calif.) and the instilled lung was ventilated at a rate of 30 cycles per minute with a peak inspiratory pressure of 25 cm H2O, a positive end expiratory pressure of 4 cm H2O and an inspiratory time of 0.5 seconds. In some studies, dynamic compliance measurements were made at various times throughout the ventilation procedure. In others, static compliance measurements were made following ventilation.
Using the plethysmograph, dynamic compliance measurements were made at various times throughout a 60 minute ventilation period. […] Compliance was calculated by the formula below. [formula]
The above equation was solved with a multiple linear regression for C and R. The compliance (C) represents the elastic nature of the lungs and the resistance (R) represents the pressure necessary to overcome the resistance to the flow of gas into and out of the lungs.

[3] = 2.5 μg of peptide per μl of solvent, solvent H2O

C RLVLRCSMDD (N-terminal Cys) [p71-81]
Admixture Formed [1, 3]: suspension

CQCLAERYSVILLDTLLGRMLPQLVCRLVLR [p46-76]
Admixture Formed ([1]; 2.5 mg of polypeptide per ml of solvent, solvent 64% chloroform 36% methanol): solution
Pressure Gradient 15″ ([2]; PL (DPPC:PG 3:1) 10 mg/ml): 0.90 cm of H2O
Pressure Gradient 1′ ([2]; PL (DPPC:PG 3:1) 10 mg/ml): 0.80 cm of H2O
Pressure Gradient 5′ ([2]; PL (DPPC:PG 3:1) 10 mg/ml): 0.62 cm of H2O

CRALIKRIQAMIPKG [p11-25]
Admixture Formed [1, 3]: solution

DTLLGRMLPQLVCRLVLRCSMDD [p59-81]
Admixture Formed ([1]; 2.5 mg of polypeptide per ml of solvent, solvent 68% chloroform 32% methanol): solution
Pressure Gradient 15″ ([2]; PL (DPPC:PG 3:1) 4 mg/ml): 1.08 cm of H2O
Pressure Gradient 1′ ([2]; PL (DPPC:PG 3:1) 4 mg/ml): 1.02 cm of H2O
Pressure Gradient 5′ ([2]; PL (DPPC:PG 3:1) 4 mg/ml): 0.75 cm of H2O

ERYSVILLDTLLGRM [p51-65]
Admixture Formed [1, 3]: suspension

ERYSVILLDTLLGRMLPQLVCR [p51-72]
Admixture Formed ([1]; 2.5 mg of polypeptide per ml of solvent, solvent 75% chloroform 25% methanol): suspension
Pressure Gradient 15″ ([2]; PL (DPPC:PG 3:1) 10 mg/ml): 1.15 cm of H2O
Pressure Gradient 1′ ([2]; PL (DPPC:PG 3:1) 10 mg/ml): 0.76 cm of H2O
Pressure Gradient 5′ ([2]; PL (DPPC:PG 3:1) 10 mg/ml): 0.33 cm of H2O

ERYSVILLDTLLGRMLPQLVCRLVLR [p51-76]
Admixture Formed ([1]; 2.5 mg of polypeptide per ml of solvent, solvent 37% chloroform 63% methanol): solution
Pressure Gradient 15″ ([2]; PL (DPPC:PG 3:1) 10 mg/ml): 0.99 cm of H2O
Pressure Gradient 1′ ([2]; PL (DPPC:PG 3:1) 10 mg/ml): 0.91 cm of H2O
Pressure Gradient 5′ ([2]; PL (DPPC:PG 3:1) 10 mg/ml): 0.42 cm of H2O
Dynamic Compliance, 10 minutes after surfactant instillation (fetal rabbit lung): 33 ml air/cm H2O (g body weight × 10^6) and 10 ml air/cm H2O (g body weight × 10^6) and 15 ml air/cm H2O (g body weight × 10^6)
Dynamic Compliance, 20 minutes after surfactant instillation (fetal rabbit lung): 22 ml air/cm H2O (g body weight × 10^6) and 11 ml air/cm H2O (g body weight × 10^6) and 36 ml air/cm H2O (g body weight × 10^6)
Dynamic Compliance, 30 minutes after surfactant instillation (fetal rabbit lung): 56 ml air/cm H2O (g body weight × 10^6) and 186 ml air/cm H2O (g body weight × 10^6) and 109 ml air/cm H2O (g body weight × 10^6)
Dynamic Compliance, 40 minutes after surfactant instillation (fetal rabbit lung): 87 ml air/cm H2O (g body weight × 10^6) and 358 ml air/cm H2O (g body weight × 10^6) and 241 ml air/cm H2O (g body weight × 10^6)
Dynamic Compliance, 50 minutes after surfactant instillation (fetal rabbit lung): 124 ml air/cm H2O (g body weight × 10^6) and 141 ml air/cm H2O (g body weight × 10^6) and 264 ml air/cm H2O (g body weight × 10^6)
Dynamic Compliance, 60 minutes after surfactant instillation (fetal rabbit lung): 85 ml air/cm H2O (g body weight × 10^6) and 144* ml air/cm H2O (g body weight × 10^6) and 301 ml air/cm H2O (g body weight × 10^6)

ERYSVILLDTLLGRMLPQLVCRLVLRCSMDD [p51-81]
Admixture Formed ([1]; 2.5 mg of polypeptide per ml of solvent, solvent 50% chloroform 50% methanol): suspension
Pressure Gradient 15″ ([2]; PL (DPPC:PG 3:1) 10 mg/ml): 0.94 cm of H2O
Pressure Gradient 1′ ([2]; PL (DPPC:PG 3:1) 10 mg/ml): 0.86 cm of H2O
Pressure Gradient 5′ ([2]; PL (DPPC:PG 3:1) 10 mg/ml): 0.64 cm of H2O

LLGRMLPQLVCRLVL [p61-75]
Admixture Formed ([1]; 2.5 μg of peptide per μl of solvent, solvent methanol): suspension

LPQLVCRLVLRCSMDD [p66-81]
Admixture Formed ([1]; 2.5 μg of peptide per μl of solvent, solvent methanol:H2O): suspension
Admixture Formed ([1]; 2.5 mg of polypeptide per ml of solvent, solvent 40% DMF 60% chloroform): suspension
Pressure Gradient 15″ ([2]; PL (DPPC:PG 3:1) 4 mg/ml): 1.22 cm of H2O
Pressure Gradient 1′ ([2]; PL (DPPC:PG 3:1) 4 mg/ml): 1.11 cm of H2O
Pressure Gradient 5′ ([2]; PL (DPPC:PG 3:1) 4 mg/ml): 0.84 cm of H2O

MIPKGALAVAVAQVC [p21-35]
Admixture Formed ([1]; 2.5 μg of peptide per μl of solvent, solvent Chloroform): suspension
